Where a name gives a salt, the structure may show the parent alone. Values belong to the molecule of their own block, whether it stands above or below them.
Tests used:
Format in all cases: biochemical
sPLA2-X protein = molecular target: T1, sPLA2-X protein (Homo sapiens, UniProt O15496); assay: sPLA2-X enzyme inhibition assay (thio-PC substrate, DTNB detection, absorbance 410 nm); design: made in house; host or cells: E. coli; details: class symbols; read-out: sPLA2 Type X Inhibition (IC50; nM)
T1 sequence (O15496 43-165): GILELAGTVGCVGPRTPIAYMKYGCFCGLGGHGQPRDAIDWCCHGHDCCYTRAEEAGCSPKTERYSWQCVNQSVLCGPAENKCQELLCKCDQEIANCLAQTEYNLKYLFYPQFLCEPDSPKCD
Source text: (§1) Screening Compounds for Inhibition of sPLA2-X, sPLA2-V, and sPLA2-IIA Enzyme Activity
(§2) These sPLA2 enzymes hydrolyze the sn-2 acyl chains of glycerophospholipids, resulting in the release of a free fatty acid and a lysophospholipid. In the case of the thio-PC substrate, this enzymatic hydrolysis results in a free sulfhydryl group remaining on the lysophospholipid. This free sulfhydryl reacts with DTNB to produce the chromogenic product 5-nitro-2-thiobenzoic acid (TNB) which can be quantitated by absorbance at 410 nm. The amount of TNB produced reflects the hydrolytic activity of the enzyme.
(§3) The recombinant human sPLA2 groups IIA, V, and X enzymes were expressed in E. coli and purified to >90% purity by standard biochemical methods.
(§4) Procedure of Enzyme Inhibition for sPLA2-X • 1. […] Dilute the test compounds in 100% DMSO by half-log steps in a 96-well dilution plate using columns 1-11 (one compound per row). Column 12 contains DMSO alone with no compound. • 3. Prepare a 3.5 mM thio-PC substrate solution by drying down 7.2 mg of stock thio-PC in ethanol under a gentle stream of N2 gas. When dry, add 4 mL assay buffer (25 mM Tris, pH7.4; 100 mM KCl; 10 mM CaCl2; 0.1% Triton X-100) and warm in a 37° C. water bath for 20 minutes with intermittent vortexing. • 4. Prepare an “enzyme containing” reaction mix with the following components: 20.4 mL assay buffer; 2 mL DTNB (20 mM in 800 mM Tris, pH8.0); and 11.8 mg recombinant human sPLA2-X enzyme (>95% pure) diluted to a total of 0.8 mL assay buffer. • 5. Prepare a “no enzyme” reaction mix with the following components: 477 μL assay buffer and 45 μL DTNB. • 6. Dispense 58 μL “no enzyme” reaction mix into each of 8 wells (columns 23 and 24, rows M-P). • 7. Dispense 58 μL “enzyme containing” reaction mix into all remaining wells on the plate. • 8. From the 96-well compound dilution plate, add 2 μL from each well for each compound to each of 4 wells with “enzyme containing” reaction mix. Columns 23 and 24 on the assay plate will contain only DMSO (vehicle control). […] After compound addition, mix the contents of each well to ensure that the DMSO is evenly distributed in the well. • 9. Cover the plate and incubate in the dark at room temperature for 15 minutes. • 10. Add 10 μL of thio-PC substrate to all wells. The final concentration of thio-PC in the reactions is 0.5 mM. • 11. Cover the plate and incubate in the dark at room temperature for 30 minutes. • 12. Measure the absorbance of all wells at 410 nm. • 13. Determine the mean absorbance of the “no enzyme” wells. Subtract this value from the absorbance values determined for all other wells (these are now background corrected data). • 14. […] Procedure of Enzyme Inhibition for sPLA2-V • 1. […] Dilute the test compounds in 100% DMSO by half-log steps in a 96-well dilution plate using columns 1-11. Column 12 contains DMSO alone with no compound. • 3. Prepare a 3.5 mM thio-PC substrate solution by drying down 7.2 mg of stock thio-PC in ethanol under a gentle stream of N2 gas. When dry, add 4 mL assay buffer (25 mM Tris, pH7.4; 100 mM KCl; 10 mM CaCl2; 0.1% Triton X-100) and warm in a 37° C. water bath for 20 minutes with intermittent vortexing. • 4. Prepare an “enzyme containing” reaction mix with the following components: 20.4 mL assay buffer; 2 mL DTNB (20 mM in 800 mM Tris, pH8.0); and 12 mg recombinant human sPLA2-V enzyme (>95% pure) diluted to a total of 0.8 mL assay buffer. • 5. Prepare a “no enzyme” reaction mix with the following components: 477 μL assay buffer and […]. • 6. Dispense 58 μL “no enzyme” reaction mix into each of 8 wells (columns 23 and 24, rows M-P). • 7. Dispense 58 μL “enzyme containing” reaction mix into all remaining wells on the plate. • 8. From the 96-well compound dilution plate, add 2 μL from each well for each compound to each of 4 wells with “enzyme containing” reaction mix. Columns 23 and 24 on the assay plate will contain only DMSO (vehicle control).

[1] = molecular target: T2, recombinant human sPLA2-IIA enzyme (Homo sapiens, UniProt P14555); assay: sPLA2-IIA enzyme inhibition assay (thio-PC substrate, DTNB detection, absorbance 410 nm); details: class symbols; read-out: sPLA2 Type IIa Inhibition (IC50; nM)
T2 construct: made in house; host or cells: E. coli
T2 sequence (P14555 21-144): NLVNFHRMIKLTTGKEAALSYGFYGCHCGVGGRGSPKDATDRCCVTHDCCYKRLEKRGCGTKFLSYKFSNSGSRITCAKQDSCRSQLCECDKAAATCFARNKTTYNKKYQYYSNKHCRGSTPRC
Source text: as §1, §2, §3, §4

[2] = molecular target: T3, recombinant human sPLA2-V enzyme (Homo sapiens, UniProt P39877); assay: sPLA2-V enzyme inhibition assay (thio-PC substrate, DTNB detection, absorbance 410 nm); details: class symbols; read-out: sPLA2 Type V Inhibition (IC50; nM)
T3 construct: made in house; host or cells: E. coli
T3 sequence (P39877 21-138): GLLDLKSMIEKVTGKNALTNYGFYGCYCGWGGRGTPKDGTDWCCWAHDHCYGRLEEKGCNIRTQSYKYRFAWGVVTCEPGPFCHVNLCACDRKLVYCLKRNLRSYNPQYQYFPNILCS
Source text: as §1, §2, §3, §4

SMILES: NC(=O)c1cc2ccc(OC(F)(F)F)cc2n1-c1cccc(C2(NCC(=O)O)CCC2)n1 [Compound 50, (1-(6-(2-carbamoyl-6-(trifluoromethoxy)-1H-indol-1-yl)pyridin-2-yl)cyclobutyl)glycine]
IC50 (sPLA2-X protein): 20 to 50 nM
IC50 [1]: > 1000 nM
IC50 [2]: > 5000 nM

SMILES: CC(C)(C)OC(=O)NC1(c2cccc(-n3c(C(N)=O)cc4ccc(OC(F)(F)F)cc43)n2)CCC1 [Compound 48, tert-butyl (1-(6-(2-carbamoyl-6-(trifluoromethoxy)-1H-indol-1-yl)pyridin-2-yl)cyclobutyl)carbamate]
IC50 (sPLA2-X protein): > 200 nM
IC50 [1]: > 1000 nM
IC50 [2]: > 5000 nM

SMILES: NC(=O)c1cc2ccc(OC(F)(F)F)cc2n1-c1ccc2c(c1)OCC2CC(=O)O (stereo not drawn) [Compound 9, 2-(6-(2-carbamoyl-6-(trifluoromethoxy)-1H-indol-1-yl)-2,3-dihydrobenzofuran-3-yl)acetic acid]
IC50 (sPLA2-X protein): > 200 nM
IC50 [1]: > 1000 nM
IC50 [2]: > 5000 nM

SMILES: NC(=O)c1cc2ccc(OC(F)(F)F)cc2n1-c1ccc2occ(C(=O)O)c2c1 [Compound 20, 5-(2-carbamoyl-6-(trifluoromethoxy)-1H-indol-1-yl)benzofuran-3-carboxylic acid]
IC50 (sPLA2-X protein): > 200 nM
IC50 [1]: > 1000 nM
IC50 [2]: > 5000 nM

SMILES: COC(=O)CC1(c2cccc(-c3c(C(N)=O)sc4ccc(OC(F)(F)F)cc34)c2)CC1 [Compound 35, methyl 2-(1-(3-(2-carbamoyl-5-(trifluoromethoxy)benzo[b]thiophen-3-yl)phenyl)cyclopropyl)acetate]
IC50 (sPLA2-X protein): > 200 nM
IC50 [1]: > 1000 nM
IC50 [2]: > 5000 nM

SMILES: NC(=O)c1cc2ccc(OC(F)(F)F)cc2n1-c1cccc(C2(CC(=O)O)CC2)n1 [Compound 59, 2-(1-(6-(2-carbamoyl-6-(trifluoromethoxy)-1H-indol-1-yl)pyridin-2-yl)cyclopropyl)acetic acid]
IC50 (sPLA2-X protein): < 20 nM
IC50 [1]: > 1000 nM
IC50 [2]: > 5000 nM

SMILES: NC(=O)c1cc2ccc(OC(F)(F)F)cc2n1-c1cccc(C[C@@H](N)C(=O)O)c1 [Compound 23, (R)-2-amino-3-(3-(2-carbamoyl-6-(trifluoromethoxy)-1H-indol-1-yl)phenyl)propanoic acid TFA salt]
IC50 (sPLA2-X protein): > 200 nM
IC50 [1]: > 1000 nM
IC50 [2]: > 5000 nM

Next, values leading:

IC50 (sPLA2-X protein): < 20 nM
IC50 [1]: > 1000 nM
IC50 [2]: < 500 nM
SMILES: NC(=O)c1cc2ccc(OC(F)(F)F)cc2n1-c1cccc(C2(CC(=O)O)CC2)c1 [Compound 31, 2-(1-(3-(2-carbamoyl-6-(trifluoromethoxy)-1H-indol-1-yl)phenyl)cyclopropyl)acetic acid]

IC50 (sPLA2-X protein): < 20 nM
IC50 [1]: > 1000 nM
IC50 [2]: 1500 to 5000 nM
SMILES: NC(=O)c1cc2ccc(OC(F)(F)F)cc2n1-c1cccc(CCC(=O)O)n1 [Compound 18, 3-(6-(2-carbamoyl-6-(trifluoromethoxy)-1H-indol-1-yl)pyridin-2-yl)propanoic acid]

IC50 (sPLA2-X protein): < 20 nM
IC50 [1]: > 1000 nM
IC50 [2]: > 5000 nM
SMILES: NC(=O)c1cc2ccc(OC(F)(F)F)cc2n1-c1cccc(SCC(=O)O)n1 [Compound 44, 2-((6-(2-carbamoyl-6-(trifluoromethoxy)-1H-indol-1-yl)pyridin-2-yl)thio)acetic acid]

IC50 (sPLA2-X protein): < 20 nM
IC50 [1]: > 1000 nM
IC50 [2]: > 5000 nM
SMILES: NC(=O)c1cc2ccc(OC(F)(F)F)cc2n1-c1cccc(C2CC2C(=O)O)n1 (racemic) [Compound 28, trans-(rac)-2-(6-(2-carbamoyl-6-(trifluoromethoxy)-1H-indol-1-yl)pyridin-2-yl)cyclopropane-1-carboxylic acid]

IC50 (sPLA2-X protein): < 20 nM
IC50 [1]: > 1000 nM
IC50 [2]: > 5000 nM
SMILES: NC(=O)c1cc2ccc(OC(F)(F)F)cc2n1-c1cccc([C@H]2C[C@@H]2C(=O)O)n1 (relative stereo) [Compound 28a, trans-(−)-2-(6-(2-carbamoyl-6-(trifluoromethoxy)-1H-indol-1-yl)pyridin-2-yl)cyclopropane-1-carboxylic acid]

Reference: patent publication US20260034111A1, “NOVEL HETEROCYCLES AS sPLA2-X INHIBITORS” (Cayman Chemical Company Incorporated, priority 2022, published 2026)
